Experimental findings from ChEMBL document CHEMBL5291721, “A preclinical secondary pharmacology resource illuminates target-adverse drug reaction associations of marketed drugs” (Nat Commun, 2023) are described below.

The target of assay [1] is T1, Gamma-aminobutyric acid receptor subunit alpha-1/alpha-2/beta-2/gamma-2 (Homo sapiens, UniProt P14867+P18507+P47869+P47870). The class given is functional, cell-based.
Assay [2] addresses T1, Gamma-aminobutyric acid receptor subunit alpha-1/alpha-2/beta-2/gamma-2. It counts as functional, cell-based. The source holds these as a separate data set.
Assay [3] has as its target T2, Peroxisome proliferator-activated receptor gamma (Homo sapiens, UniProt P37231).
T2 sequence (P37231 whole entry): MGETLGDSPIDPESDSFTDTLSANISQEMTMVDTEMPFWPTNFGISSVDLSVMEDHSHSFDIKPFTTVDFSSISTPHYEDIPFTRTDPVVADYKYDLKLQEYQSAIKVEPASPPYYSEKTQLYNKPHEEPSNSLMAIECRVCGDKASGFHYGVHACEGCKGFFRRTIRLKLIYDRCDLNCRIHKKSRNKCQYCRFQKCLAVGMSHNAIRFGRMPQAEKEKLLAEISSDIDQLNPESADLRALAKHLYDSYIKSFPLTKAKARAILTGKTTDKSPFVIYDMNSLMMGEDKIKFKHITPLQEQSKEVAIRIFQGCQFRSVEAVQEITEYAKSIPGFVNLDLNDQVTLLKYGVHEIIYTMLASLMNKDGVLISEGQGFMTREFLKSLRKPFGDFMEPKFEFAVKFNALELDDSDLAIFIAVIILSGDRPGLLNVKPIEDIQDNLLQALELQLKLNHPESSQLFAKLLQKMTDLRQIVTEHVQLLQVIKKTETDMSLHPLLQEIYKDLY
The class given is functional.

In assay [4] the target is T2, Peroxisome proliferator-activated receptor gamma. It counts as functional. This is another data set of the same source.
In assay [5] the target is T3, Estrogen receptor (Homo sapiens, UniProt P03372).
T3 sequence (P03372 whole entry): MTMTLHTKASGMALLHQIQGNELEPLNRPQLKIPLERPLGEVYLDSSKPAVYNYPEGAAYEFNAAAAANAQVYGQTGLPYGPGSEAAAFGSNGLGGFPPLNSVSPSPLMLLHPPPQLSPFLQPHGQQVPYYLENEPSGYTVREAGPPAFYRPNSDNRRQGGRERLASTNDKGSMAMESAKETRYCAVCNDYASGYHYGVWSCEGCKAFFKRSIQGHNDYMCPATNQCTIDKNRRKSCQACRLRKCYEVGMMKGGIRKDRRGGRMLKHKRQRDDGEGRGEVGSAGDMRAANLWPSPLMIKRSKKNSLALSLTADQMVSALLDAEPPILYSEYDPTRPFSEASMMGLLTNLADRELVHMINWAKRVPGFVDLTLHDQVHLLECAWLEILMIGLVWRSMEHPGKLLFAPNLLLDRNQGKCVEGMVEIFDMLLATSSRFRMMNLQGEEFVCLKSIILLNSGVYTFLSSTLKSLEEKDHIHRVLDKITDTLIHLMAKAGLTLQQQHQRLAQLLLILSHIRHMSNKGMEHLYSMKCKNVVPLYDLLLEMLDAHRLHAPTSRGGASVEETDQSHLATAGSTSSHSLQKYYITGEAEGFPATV

Assay [6] deals with T4, Progesterone receptor (Homo sapiens, UniProt P06401).
T4 sequence (P06401 whole entry): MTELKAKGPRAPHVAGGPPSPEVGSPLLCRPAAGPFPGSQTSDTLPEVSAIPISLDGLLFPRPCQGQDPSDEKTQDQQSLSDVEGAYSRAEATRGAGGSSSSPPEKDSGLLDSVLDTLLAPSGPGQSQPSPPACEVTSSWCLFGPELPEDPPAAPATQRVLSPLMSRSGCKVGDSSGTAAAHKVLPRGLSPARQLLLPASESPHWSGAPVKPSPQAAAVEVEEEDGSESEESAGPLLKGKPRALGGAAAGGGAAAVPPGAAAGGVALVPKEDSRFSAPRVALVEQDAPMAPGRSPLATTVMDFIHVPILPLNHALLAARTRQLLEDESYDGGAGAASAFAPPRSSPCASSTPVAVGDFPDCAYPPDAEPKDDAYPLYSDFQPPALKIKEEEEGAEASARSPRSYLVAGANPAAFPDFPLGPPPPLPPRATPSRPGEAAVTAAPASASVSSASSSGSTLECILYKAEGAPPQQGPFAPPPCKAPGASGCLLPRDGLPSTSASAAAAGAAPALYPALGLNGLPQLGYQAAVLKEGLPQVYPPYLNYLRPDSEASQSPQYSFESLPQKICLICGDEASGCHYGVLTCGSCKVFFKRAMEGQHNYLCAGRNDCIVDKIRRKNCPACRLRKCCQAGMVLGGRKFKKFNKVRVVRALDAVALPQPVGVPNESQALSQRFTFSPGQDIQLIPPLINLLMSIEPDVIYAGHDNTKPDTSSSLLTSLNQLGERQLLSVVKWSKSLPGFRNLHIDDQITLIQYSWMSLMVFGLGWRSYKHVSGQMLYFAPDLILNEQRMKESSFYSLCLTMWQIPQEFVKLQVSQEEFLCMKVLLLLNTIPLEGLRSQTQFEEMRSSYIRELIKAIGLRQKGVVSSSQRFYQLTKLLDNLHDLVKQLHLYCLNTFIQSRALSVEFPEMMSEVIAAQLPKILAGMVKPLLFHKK

Where only a bound is given, the exact number is not on record here.
Note: assay procedure not described here.

T1 sequence (P14867 whole entry): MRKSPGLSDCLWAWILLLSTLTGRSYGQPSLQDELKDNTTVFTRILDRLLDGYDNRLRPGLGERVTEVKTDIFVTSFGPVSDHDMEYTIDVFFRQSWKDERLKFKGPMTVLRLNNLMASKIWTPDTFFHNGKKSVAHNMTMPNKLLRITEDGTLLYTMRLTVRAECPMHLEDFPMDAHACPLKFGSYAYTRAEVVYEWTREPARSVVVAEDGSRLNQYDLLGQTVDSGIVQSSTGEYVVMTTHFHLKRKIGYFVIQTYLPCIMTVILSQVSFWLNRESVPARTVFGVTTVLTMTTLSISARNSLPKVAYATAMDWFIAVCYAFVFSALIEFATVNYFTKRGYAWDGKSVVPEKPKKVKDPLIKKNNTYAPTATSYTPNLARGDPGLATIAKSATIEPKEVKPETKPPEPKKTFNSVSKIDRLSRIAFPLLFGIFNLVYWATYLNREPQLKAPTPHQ
T1 sequence (P47870 whole entry): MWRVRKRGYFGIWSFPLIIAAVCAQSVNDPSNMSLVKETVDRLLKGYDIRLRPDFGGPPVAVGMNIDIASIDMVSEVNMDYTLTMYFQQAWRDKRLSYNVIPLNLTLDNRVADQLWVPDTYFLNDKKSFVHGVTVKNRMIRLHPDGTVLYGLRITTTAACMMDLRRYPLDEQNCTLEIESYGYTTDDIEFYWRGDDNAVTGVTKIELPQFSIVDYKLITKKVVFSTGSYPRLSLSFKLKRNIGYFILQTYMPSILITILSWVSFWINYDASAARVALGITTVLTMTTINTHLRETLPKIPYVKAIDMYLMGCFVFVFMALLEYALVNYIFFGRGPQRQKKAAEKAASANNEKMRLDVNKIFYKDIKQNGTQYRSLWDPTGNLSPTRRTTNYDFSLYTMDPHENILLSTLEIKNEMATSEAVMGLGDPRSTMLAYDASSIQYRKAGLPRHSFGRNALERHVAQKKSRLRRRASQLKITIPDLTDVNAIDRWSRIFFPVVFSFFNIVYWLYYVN
T1 sequence (P18507 whole entry): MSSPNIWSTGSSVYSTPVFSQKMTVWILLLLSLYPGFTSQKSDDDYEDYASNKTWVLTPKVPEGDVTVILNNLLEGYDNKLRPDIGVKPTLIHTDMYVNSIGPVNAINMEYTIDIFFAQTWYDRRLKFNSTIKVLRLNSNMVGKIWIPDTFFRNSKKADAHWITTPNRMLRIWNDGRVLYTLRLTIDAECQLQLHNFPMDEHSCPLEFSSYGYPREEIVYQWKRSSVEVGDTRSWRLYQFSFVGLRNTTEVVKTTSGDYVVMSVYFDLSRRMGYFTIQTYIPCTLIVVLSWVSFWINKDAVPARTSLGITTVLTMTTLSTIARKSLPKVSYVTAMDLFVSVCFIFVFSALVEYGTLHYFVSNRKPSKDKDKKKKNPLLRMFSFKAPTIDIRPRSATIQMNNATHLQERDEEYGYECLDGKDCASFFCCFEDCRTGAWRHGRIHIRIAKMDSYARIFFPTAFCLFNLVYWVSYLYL
T1 sequence (P47869 whole entry): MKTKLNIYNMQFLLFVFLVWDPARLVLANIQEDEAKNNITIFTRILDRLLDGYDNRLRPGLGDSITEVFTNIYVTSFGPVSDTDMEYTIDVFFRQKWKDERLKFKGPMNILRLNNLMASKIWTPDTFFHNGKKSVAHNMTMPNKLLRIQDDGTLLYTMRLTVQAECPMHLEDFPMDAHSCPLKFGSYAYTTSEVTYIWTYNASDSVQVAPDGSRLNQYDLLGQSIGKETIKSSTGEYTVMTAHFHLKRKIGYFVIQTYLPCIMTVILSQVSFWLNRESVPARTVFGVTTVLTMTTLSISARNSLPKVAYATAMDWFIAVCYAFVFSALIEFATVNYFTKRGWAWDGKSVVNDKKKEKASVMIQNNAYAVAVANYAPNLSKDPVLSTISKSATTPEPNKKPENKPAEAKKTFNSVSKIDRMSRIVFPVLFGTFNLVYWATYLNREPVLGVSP

In the case of `CCOCC(O)COc1ccc(NC(=O)CC[S+](C)C)cc1` (stereo not drawn), the concentration at half-maximal activity (AC50) in assay [1], in assay [2], in assay [3] and in assay [4] was greater than 30 µM each time.

Consider `C=CC1=C(C(=O)O)N2C(=O)[C@@H](NC(=O)/C(=N\O)c3csc(N)n3)[C@H]2SC1`, for which the AC50 in assay [5] and in assay [6] was greater than 30 µM in each case.

Consider `O=C(O)COC(=O)Cc1ccccc1Nc1c(Cl)cccc1Cl` [ACECLOFENAC], for which the concentration at half-maximal activity (AC50) in assay [5] and in assay [6] was greater than 30 µM each time.

Regarding `CN(C)CCc1c[nH]c2ccc(CS(=O)(=O)N3CCCC3)cc12` [ALMOTRIPTAN], the AC50 in assay [5], in assay [1] and in assay [2] was greater than 30 µM throughout.

For the compound `CC[N+](CC)(CCNC(=O)C(=O)NCC[N+](CC)(CC)Cc1ccccc1Cl)Cc1ccccc1Cl` [AMBENONIUM], the half-maximal activity concentration (AC50) (usually the midpoint of the concentration-response curve, whichever way the signal moves) in assay [5] was greater than 30 µM.

The compound `NCCCNCCSP(=O)(O)O` [AMIFOSTINE] showed an AC50 in assay [5] greater than 30 µM.

In turn, `NCCCCCC(=O)O` [AMINOCAPROIC ACID] displayed a concentration at half-maximal activity (AC50) in assay [5] greater than 10 µM.

For `CC(C)NCC(O)COc1ccc(CC(N)=O)cc1` (stereo not drawn) [ATENOLOL], the AC50 in assay [5] was greater than 30 µM.

`CC(C)C[C@H](NC(=O)[C@H](Cc1ccccc1)NC(=O)c1cnccn1)B(O)O` [BORTEZOMIB]: the AC50 in assay [5] was greater than 30 µM.

In assay [6], `C[C@H](CS)C(=O)N1CCC[C@H]1C(=O)O` [CAPTOPRIL] registered an AC50 greater than 30 µM.

Turning to `CN(C)CCOC(c1ccc(Cl)cc1)c1ccccn1` (stereo not drawn) [CARBINOXAMINE], the AC50 in assay [5], in assay [1], in assay [2], in assay [3] and in assay [4] was greater than 30 µM in each case.

`CCN(CC)CCn1c(=O)c(Cc2ccc(OC)cc2)nc2ccccc21` [CAROVERINE]: the AC50 in assay [5] is greater than 30 µM.

Regarding `O=C(O)[C@H]1/C(=C/CO)O[C@@H]2CC(=O)N21` [CLAVULANIC ACID], the concentration at half-maximal activity (AC50) in assay [1], in assay [2], in assay [3] and in assay [4] was greater than 30 µM in each case.

For `CC(C)/N=c1\cc2n(-c3ccc(Cl)cc3)c3ccccc3nc-2cc1Nc1ccc(Cl)cc1` [CLOFAZIMINE], the half-maximal activity concentration (AC50) in assay [5] was 0.13 µM.

Regarding `C[C@]12CCC(=O)C=C1CC[C@H]1[C@@H]3CC[C@](O)(C(=O)CO)[C@@]3(C)C[C@H](O)[C@@]12F` [FLUDROCORTISONE], the AC50 in assay [5] and in assay [6] was greater than 30 µM throughout.

Compound `CCOC(=O)Nc1ccc(NCc2ccc(F)cc2)nc1N` [FLUPIRTINE] displayed an AC50 in assay [5] of 3 µM.

On to `N[C@@H](Cc1cc(I)c(Oc2cc(I)c(O)c(I)c2)c(I)c1)C(=O)O` [LEVOTHYROXINE], for which the AC50 in assay [1], in assay [2], in assay [3] and in assay [4] was greater than 30 µM in each case.

For the compound `CS(=O)(=O)Nc1ccc([N+](=O)[O-])cc1Oc1ccccc1` [NIMESULIDE], the AC50 in assay [1] and in assay [2] was greater than 30 µM in each case.

For `CCCCCCCC/C=C\CCCCCCCC(=O)O` [OLEIC ACID], the AC50 in assay [3] and in assay [4] was greater than 300 µM in each case.

`CC(=O)SCC(Cc1ccccc1)C(=O)NCC(=O)OCc1ccccc1` (stereo not drawn) [RACECADOTRIL]: the AC50 in assay [5] and in assay [6] was greater than 30 µM in each case.

`CCOc1ccccc1OCCN[C@H](C)Cc1ccc(OC)c(S(N)(=O)=O)c1` [TAMSULOSIN] gave an AC50 in assay [6] greater than 30 µM.

In assay [5], `C[C@H](Cn1cnc2c(N)ncnc21)OCP(=O)(O)O` [TENOFOVIR ANHYDROUS] registered a concentration at half-maximal activity (AC50) greater than 30 µM.

`CN(C)CCN(Cc1ccccc1)c1ccccn1` [TRIPELENNAMINE] returned an AC50 in assay [5] greater than 10 µM.

On to `Cc1c(C)c2c(c(C)c1O)CCC(C)(COc1ccc(CC3SC(=O)NC3=O)cc1)O2` (stereo not drawn) [TROGLITAZONE], for which the AC50 in assay [5] was greater than 30 µM; in assay [1], greater than 30 µM; in assay [2], 6.8 µM; in assay [6] it was greater than 30 µM.
